Key:
Assay in all cases: relative viability (nuclei count vs DMSO), 5 days (fraction); higher = more cells survive
GSK126 + Alpelisib = compound: CC[C@H](C)N1C=C(C2=C(C=C(C=C21)C3=CN=C(C=C3)N4CCNCC4)C(=O)NCC5=C(C=C(NC5=O)C)C)C [GSK126] + Cc1nc(NC(=O)N2CCC[C@H]2C(N)=O)sc1-c1ccnc(C(C)(C)C(F)(F)F)c1 [Alpelisib] (partner 2 µM)
How it was run: (§1)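 A single step with final 0.05% Triton X-100, 1% formaldehyde and 1 ug/ml Hoechst fixed the cells and stained nuclei 5 days after treatment. Lung cancer cell lines in 1536-well plates had been treated by pin tool the day after seeding with one drug alone or a fixed anchor-drug dose plus five library-drug doses (not always all listed) in √10 steps, and nuclei were counted on 4× images. Relative viability is the ratio of nuclei in treated wells to nuclei in vehicle wells, taken as the median of duplicate plates.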

MLN4924 + Lapatinib = compound: NS(=O)(=O)OC[C@@H]1C[C@@H](n2ccc3c(N[C@H]4CCc5ccccc54)ncnc32)C[C@@H]1O [MLN4924] + CS(=O)(=O)CCNCc1ccc(-c2ccc3ncnc(Nc4ccc(OCc5cccc(F)c5)c(Cl)c4)c3c2)o1 [Lapatinib] (partner 2 µM)
How it was run: as §1

Carboplatin + Phenformin = compound: C1CC(C1)(C(=O)O)C(=O)O.[NH2-].[NH2-].[Pt+2] [Carboplatin] + N=C(N)NC(=N)NCCc1ccccc1 [Phenformin] (partner 250 µM)
How it was run: as §1

Carboplatin + Decitabine = compound: C1CC(C1)(C(=O)O)C(=O)O.[NH2-].[NH2-].[Pt+2] [Carboplatin] + Nc1ncn([C@H]2C[C@H](O)[C@@H](CO)O2)c(=O)n1 [Decitabine] (partner 2 µM)
How it was run: as §1

Cell Line	relative viability (GSK126 + Alpelisib; first compound 0.08 µM)	relative viability (GSK126 + Alpelisib; first compound 0.253 µM)	relative viability (GSK126 + Alpelisib; first compound 0.8 µM)	relative viability (GSK126 + Alpelisib; first compound 2.53 µM)	relative viability (GSK126 + Alpelisib; first compound 8 µM)	relative viability (MLN4924 + Lapatinib; first compound 0.04 µM)	relative viability (MLN4924 + Lapatinib; first compound 0.1265 µM)	relative viability (MLN4924 + Lapatinib; first compound 0.4 µM)	relative viability (MLN4924 + Lapatinib; first compound 1.265 µM)	relative viability (MLN4924 + Lapatinib; first compound 4 µM)	relative viability (Carboplatin + Phenformin; first compound 0.08 µM)	relative viability (Carboplatin + Phenformin; first compound 0.253 µM)	relative viability (Carboplatin + Phenformin; first compound 0.8 µM)	relative viability (Carboplatin + Phenformin; first compound 2.53 µM)	relative viability (Carboplatin + Phenformin; first compound 8 µM)	relative viability (Carboplatin + Decitabine; first compound 0.08 µM)	relative viability (Carboplatin + Decitabine; first compound 0.253 µM)	relative viability (Carboplatin + Decitabine; first compound 0.8 µM)	relative viability (Carboplatin + Decitabine; first compound 2.53 µM)	relative viability (Carboplatin + Decitabine; first compound 8 µM)
NCI-H2009	1.26	1.16	1.17	1.13	1.14	0.437	0.261	0.237	0.087	0.111	0.519	0.47	0.444	0.433	0.42	0.352	0.379	0.345	0.364	0.357
PC-3 [JPC-3]	1.04	1.13	1.05	1.02	1.07	0.478	0.51	0.277	0.261	0.262	0.486	0.461	0.449	0.473	0.456	0.835	0.75	0.795	0.734	0.7
NCI-H2085	1.07	0.912	1	0.906	0.995	0.812	0.89	0.465	0.313	0.283	0.88	0.741	0.695	0.737	0.775	0.548	0.57	0.506	0.544	0.474
EKVX	0.961	0.92	0.819	0.813	0.746	0.208	0.311	0.19	0.119	0.102	0.248	0.214	–	0.227	0.22	0.4	0.331	0.389	0.307	0.283
NCI-H1792	0.703	0.77	0.78	0.761	0.636	0.806	0.599	0.484	0.182	0.175	0.318	0.317	0.192	0.203	0.237	0.475	0.562	0.497	0.372	0.291
NCI-H2405	0.774	0.664	0.827	0.761	0.667	1.26	1.05	0.511	0.192	0.195	0.455	0.379	0.369	0.38	0.383	0.705	0.784	0.809	0.659	0.442
ABC-1	1.19	1.31	1.02	1.11	1.01	1.11	1.45	1.71	0.773	0.552	0.226	0.19	0.248	0.251	0.226	1.02	1.12	1.01	0.931	0.52
201T	0.999	1.07	1.02	1.05	1.1	1.13	1.09	0.826	0.384	0.417	0.482	0.447	0.441	0.444	0.432	0.869	0.822	0.865	0.791	0.76
NCI-H1755	0.927	0.974	0.951	0.866	0.883	0.933	1.03	0.386	0.181	0.165	0.65	0.618	0.623	0.604	0.576	0.702	0.674	0.737	0.668	0.607
NCI-H647	1.33	1.34	1.1	1.05	0.919	0.817	0.539	0.0888	0.0473	0.0818	0.555	0.66	0.422	0.55	0.452	0.45	0.305	0.286	0.292	0.306
NCI-H1651	1.13	0.946	0.933	0.938	0.936	0.911	0.776	0.281	0.138	0.116	0.386	0.335	0.288	0.272	0.218	0.773	0.633	0.589	0.574	0.509
NCI-H1437	1.07	0.934	0.869	0.824	0.993	0.79	0.656	0.268	0.119	0.1	0.29	0.303	0.294	0.301	0.299	0.508	0.556	0.529	0.508	0.464
NCI-H1975	0.741	0.649	0.607	0.643	0.616	1.13	1.02	0.308	0.152	0.169	0.437	0.43	0.437	0.413	0.394	0.416	0.399	0.402	0.43	0.367
BEN	1.1	0.996	1.04	1.16	0.734	0.671	0.522	0.249	0.145	0.104	0.233	0.275	0.258	0.264	0.248	0.87	0.714	0.691	0.634	0.599
NCI-H2170	0.932	0.852	0.839	0.795	0.745	0.258	0.301	0.25	0.208	0.228	0.429	0.446	0.402	0.38	0.41	0.507	0.476	0.465	0.428	0.343
HCC-44	0.884	0.841	0.813	0.81	0.859	0.657	0.249	0.159	0.142	0.145	0.344	0.191	0.194	0.187	0.144	0.968	0.915	0.949	0.923	0.863

Cell Line	relative viability (GSK126 + Alpelisib; first compound 0.08 µM)	relative viability (GSK126 + Alpelisib; first compound 0.253 µM)	relative viability (GSK126 + Alpelisib; first compound 0.8 µM)	relative viability (GSK126 + Alpelisib; first compound 2.53 µM)	relative viability (GSK126 + Alpelisib; first compound 8 µM)	relative viability (MLN4924 + Lapatinib; first compound 0.04 µM)	relative viability (MLN4924 + Lapatinib; first compound 0.1265 µM)	relative viability (MLN4924 + Lapatinib; first compound 0.4 µM)	relative viability (MLN4924 + Lapatinib; first compound 1.265 µM)	relative viability (MLN4924 + Lapatinib; first compound 4 µM)	relative viability (Carboplatin + Phenformin; first compound 0.08 µM)	relative viability (Carboplatin + Phenformin; first compound 0.253 µM)	relative viability (Carboplatin + Phenformin; first compound 0.8 µM)	relative viability (Carboplatin + Phenformin; first compound 2.53 µM)	relative viability (Carboplatin + Phenformin; first compound 8 µM)	relative viability (Carboplatin + Decitabine; first compound 0.08 µM)	relative viability (Carboplatin + Decitabine; first compound 0.253 µM)	relative viability (Carboplatin + Decitabine; first compound 0.8 µM)	relative viability (Carboplatin + Decitabine; first compound 2.53 µM)	relative viability (Carboplatin + Decitabine; first compound 8 µM)
NCI-H3122	0.827	0.854	0.767	0.768	0.829	0.991	0.629	0.293	0.177	0.206	0.4	0.399	0.385	0.37	0.359	0.49	0.433	0.437	0.397	0.436
NCI-H1355	0.935	0.836	0.762	0.876	0.901	0.952	1.02	0.64	0.181	0.166	0.524	0.478	0.465	0.405	0.451	0.337	0.379	0.329	0.333	0.28
A549	0.917	0.75	0.749	0.826	0.796	0.71	0.667	0.079	0.0634	0.0662	0.186	0.193	0.16	0.112	0.073	0.259	0.338	0.279	0.231	0.18
NCI-H1734	0.789	0.605	0.654	0.698	0.682	1.02	0.925	0.19	0.118	0.134	0.463	0.479	0.364	0.356	0.364	0.485	0.46	0.483	0.465	0.438
LXF-289	1.1	1.05	1.02	1.01	1.02	0.804	0.682	0.416	0.184	0.15	0.566	0.584	0.519	0.539	0.502	0.395	0.407	0.382	0.358	0.31
RERF-LC-KJ	0.881	0.803	0.697	0.845	0.734	0.746	0.555	0.227	0.191	0.221	0.45	0.387	0.386	0.335	0.317	0.627	0.665	0.646	0.574	0.422
NCI-H2087	0.993	1.21	1.26	0.919	1.05	0.843	0.597	0.233	0.142	0.132	0.493	0.48	0.383	0.424	0.332	0.242	0.28	0.307	0.227	0.237
NCI-H1793	0.968	0.783	0.548	0.511	0.766	0.662	0.645	0.395	0.136	0.167	0.444	0.496	0.289	0.35	0.405	0.464	0.538	0.503	0.452	0.357
HCC-827	1.06	1	1.03	0.997	0.982	0.242	0.283	0.398	0.182	0.166	0.444	0.394	0.428	0.366	0.365	0.354	0.321	0.248	0.19	0.304
NCI-H1395	1.12	0.937	1.08	1.2	1.03	0.793	0.986	0.5	0.39	0.351	0.476	0.446	0.497	0.379	0.402	0.797	0.747	0.63	0.584	0.516
NCI-H23	0.74	0.628	0.565	0.779	0.76	0.282	0.232	0.202	0.125	0.169	0.824	0.753	0.768	0.727	0.714	0.377	0.266	0.298	0.291	0.276
HARA	0.961	0.804	0.783	0.738	0.788	0.856	0.607	0.283	0.0754	0.0741	0.466	0.518	0.372	0.426	0.425	0.681	0.439	0.549	0.448	0.469
HCC-366	0.452	0.342	0.381	0.546	0.409	0.788	0.479	0.037	0.0233	0.0288	0.619	0.637	0.662	0.575	0.467	0.322	0.32	0.336	0.251	0.203
NCI-H838	1.12	0.982	0.866	0.845	0.809	0.754	0.273	0.257	0.126	0.148	0.707	0.587	0.603	0.601	0.603	0.479	0.492	0.425	0.412	0.386
NCI-H2023	0.635	0.641	0.588	0.677	0.571	0.352	0.133	0.0733	0.0477	0.0781	0.447	0.413	0.381	0.27	0.145	0.238	0.224	0.185	0.141	0.129
HCC-78	0.413	0.304	0.287	0.301	0.372	0.871	0.515	0.683	0.142	0.215	0.829	0.685	0.641	0.726	0.744	0.659	0.61	0.709	0.656	0.73

From the supplement of paper PMC10307832
